From US10463671B2, “Combination therapy for treating cancer” (Epizyme, Inc., priority 2013, dated 2019)
Like-named read-outs stand apart in the source and are kept apart here. Marks after values point to notes of the source that are not given here.

Columns and labels:
SU-DHL-10 cells = assay: Medium throughput combination proliferation assay (CellTiter-Glo, Chou-Talalay CI / potency shift); settings: for IC50: read-out: Potency (IC50), SU-DHL-10 (GCB sub-type EZH2 Y646F), after 3 days of dosing; for IC50 / growth inhibition by the drug by itself: single agent; for CI range (combination index) / 1/α: SU-DHL-10; for CI range (combination index): combination with Compound 44 at constant ratio, CI range above Fractional effect of 0.5; for Summary of Combinations with Compound 44: SU-DHL10 (EZH2 Mutant GCB), drug combined with Compound 44; for growth inhibition by the drug by itself: SU-DHL10 (EZH2 mutant); for 1/α: combination with Compound 44
Toledo cells = assay: as above; settings: for 1/α / IC50: Toledo; for 1/α: combination with Compound 44; for IC50: read-out: Potency (IC50), single agent, dosed for 5 days; for Summary of Combinations with Compound 44: Toledo (EZH2 WT GCB), drug combined with Compound 44
OCI-LY19 cells = assay: as above; settings: for IC50: Homo sapiens, OCI-LY19, 72 h, read-out: Potency (IC50); for 1/α: OCI-LY19, combination with Compound 44
WSU-DLCL2 cells = assay: as above; settings: for IC50: Homo sapiens, WSUDLCL2, 72 h, read-out: Potency (IC50); for Summary of Combinations with Compound 44: WSU-DLCL2 (EZH2 Mutant GCB), drug combined with Compound 44; for growth inhibition by the drug by itself: WSU-DLCL2 (EZH2 mutant); for 1/α: combination with Compound 44
SU-DHL-5 cells = assay: as above; settings: for IC50: Homo sapiens, SU-DHL-5, 72 h, read-out: Potency (IC50); for 1/α: combination with Compound 44
DOHH2 cells = assay: as above; settings: for IC50: read-out: Potency (IC50), DOHH-2 (GCB sub-type WT EZH2), single agent, after 3 days of dosing; for 1/α: DOHH2, combination with Compound 44, data normalized to individual 6438 concentrations instead of DMSO; for Summary of Combinations with Compound 44: DOHH2 (EZH2 WT GCB), drug combined with Compound 44
SU-DHL6 cells = assay: as above; type: cell-based; settings: SU-DHL6 (EZH2 Mutant GCB); drug combined with Compound 44
H3K27Me3 levels = settings: single agent, four day treatment
H3K27 acetylation levels = settings: WSU-DLCL2, OCI-LY19, RL cells; 4 days
Procedure: Acid extracted histones were analyzed by western blot for H3K27 acetylation levels.

[1] = test system: Sestrin 1 (SESN1), TNF and GILZ expression; settings: all cell lines; 4 days
Procedure: Gene expression was normalized to array's B2M and fold change compared to DMSO was calculated using the ΔΔCt method.

Row | Compound | IC50 (SU-DHL-10 cells) [nM] | 1/α (Toledo cells) | IC50 (Toledo cells) [nM] | IC50 (OCI-LY19 cells) [nM] | 1/α (OCI-LY19 cells) | IC50 (WSU-DLCL2 cells) [nM] | IC50 (SU-DHL-5 cells) [nM] | IC50 (DOHH2 cells) [nM] | 1/α (DOHH2 cells) | Summary of Combinations with Compound 44 (SU-DHL-10 cells) | Summary of Combinations with Compound 44 (WSU-DLCL2 cells) | other results
1 | CC1(C)CCC(c2ccc(Cl)cc2)=C(CN2CCN(c3ccc(C(=O)NS(=O)(=O)c4ccc(N[C@H](CCN5CCOCC5)CSc5ccccc5)c(S(=O)(=O)C(F)(F)F)c4)cc3)CC2)C1 [Navitoclax] | > 10000 | No effect | 590 | 131 | 6.60 | 3540 | > 10000 | 540 |  |  |  | 1/α (SU-DHL-5 cells; SU-DHL-5): No Effect
2 | CC(=O)Nc1cccc(-n2c(=O)n(C3CC3)c(=O)c3c(Nc4ccc(I)cc4F)n(C)c(=O)c(C)c32)c1 [Trametinib] | > 10000 | No effect | > 10000 | > 10000 | No effect | 8610 | > 10000 | > 10000 |  |  |  | 
3 | COC1=CC(c2cc3ccccc3[nH]2)=N/C1=C\c1[nH]c(C)cc1C [Obatoclax] | 19.5 |  | 96 | 42 | 1.50 | 59 | 9.8 | 51 |  |  |  | CI range (combination index) (SU-DHL-10 cells): 0.91-1.36^e; CI range (combination index) (WSU-DLCL2 cells; WSU-DLCL2, combination with Compound 44 at constant ratio, CI range above Fractional effect of 0.5): 1.10^e; CI range (combination index) (SU-DHL-5 cells; SU-DHL-5, combination with Compound 44 at constant ratio, CI range above Fractional effect of 0.5): 1.26-1.61^e
4 | C=CC(=O)N1CCC[C@@H](n2nc(-c3ccc(Oc4ccccc4)cc3)c3c(N)ncnc32)C1 [Ibrutinib] | 1150 | No effect | > 10000 | > 10000 | No effect | 278 | 1330 | 956 | 0.67 |  |  | 
5 | COc1cccc2c1C(=O)c1c(O)c3c(c(O)c1C2=O)C[C@@](O)(C(=O)CO)C[C@@H]3O[C@H]1C[C@H](N)[C@H](O)[C@H](C)O1 [Doxorubicin] |  |  |  |  |  |  |  |  |  | Additive | Synergy | growth inhibition by the drug by itself (SU-DHL-10 cells): concentration-dependent growth inhibition; Summary of Combinations with Compound 44 (Toledo cells): No effect; growth inhibition by the drug by itself (WSU-DLCL2 cells; single agent): concentration-dependent growth inhibition; Summary of Combinations with Compound 44 (SU-DHL6 cells): Additive; Summary of Combinations with Compound 44 (DOHH2 cells): No effect
6 | C[C@@H]1C[C@H]2[C@@H]3CCC4=CC(=O)C=C[C@]4(C)[C@@]3(F)[C@@H](O)C[C@]2(C)[C@@]1(O)C(=O)CO [Dexamethasone] | > 100 | No effect | > 100 | 79 | 7.7 | > 10000 | 3.4 | 5.6 | 4.2 |  |  | 1/α (SU-DHL-10 cells): 3.7; Summary of Combinations with Compound 44 (Toledo cells): No effect
7 | C[C@]12C=CC(=O)C=C1CC[C@@H]1[C@@H]2[C@@H](O)C[C@@]2(C)[C@H]1CC[C@]2(O)C(=O)CO [Prednisolone] | > 1000 | No effect | > 1000 | 47 | 4.2 |  | 39 | 133 | 9.5 | Synergy | Synergy | H3K27Me3 levels (H3K27Me3 levels; OCI-LY19 cells): increase H3K27Me3 levels at higher doses; H3K27Me3 levels (H3K27Me3 levels; RL cells): no effect; H3K27Me3 levels (H3K27Me3 levels; WSU-DLCL2 cells): no effect; growth inhibition by the drug by itself (SU-DHL-10 cells): no sensitivity; 1/α (SU-DHL-10 cells): 4.2; Summary of Combinations with Compound 44 (Toledo cells): No effect; global H3K27 acetylation levels (H3K27 acetylation levels): not affected; Summary of Combinations with Compound 44 (OCI-LY19 cells; OCI-LY-19 (EZH2 WT GCB), drug combined with Compound 44): Synergy; growth inhibition by the drug by itself (WSU-DLCL2 cells; single agent): no sensitivity; 1/α (WSU-DLCL2 cells; WSU-DLCL2): 9.7; Summary of Combinations with Compound 44 (SU-DHL-5 cells; SU-DHL5 (EZH2 WT GCB), drug combined with Compound 44): Synergy; 1/α (SU-DHL-5 cells; SU-DHL-5): 7.6; Summary of Combinations with Compound 44 (SU-DHL6 cells): Synergy; Summary of Combinations with Compound 44 (DOHH2 cells): Synergy; potency of the glucocorticoid agonist with addition of Compound 44 (DOHH2 cells; DOHH2 EZH2 wild-type cells): increased; TSC22D3/GILZ expression [1]: up-regulated
8 | CO[C@H]1C[C@@H]2CC[C@@H](C)[C@@](O)(O2)C(=O)C(=O)N2CCCC[C@H]2C(=O)O[C@H]([C@H](C)C[C@@H]2CC[C@@H](OCCO)[C@H](OC)C2)CC(=O)[C@H](C)/C=C(\C)[C@@H](O)[C@@H](OC)C(=O)[C@H](C)C[C@H](C)/C=C/C=C/C=C/1C [Everolimus] | 0.854 | No effect | 0.1 |  | No effect | 0.653 | 0.72 | 0.13 |  | very strong synergy | very strong synergy | 
9 | CC1(C)CCC(CN2CCN(c3ccc(C(=O)NS(=O)(=O)c4ccc(NCC5CCOCC5)c([N+](=O)[O-])c4)c(Oc4cnc5[nH]ccc5c4)c3)CC2)=C(c2ccc(Cl)cc2)C1 [ABT-199] | 3040 |  | 190 | 53 | 4.20 | 1940 | > 10000 | 77 |  |  |  | CI range (combination index) (SU-DHL-10 cells): 1.2-1.4^e; 1/α (SU-DHL-5 cells; SU-DHL-5): No Effect
10 | Rituximab: the antibody combined with chemotherapeutics in R-CHOP, targets cd-20 |  |  |  |  |  |  |  |  |  |  |  | 1/α (WSU-DLCL2 cells; WSU-DLCL2): 2.6; Potency (IC50), Rituximab (WSU-DLCL2 cells; WSU-DLCL2, single agent, after 3 days of dosing): >10^a μg/ml
11 | NC1(c2ccc(-c3nc4ccn5c(=O)[nH]nc5c4cc3-c3ccccc3)cc2)CCC1 [MK-2206] | 275 |  | 95 | 304 | 71.40 | 127 | 162 | 86 | 0.64 | very strong synergy | very strong synergy | 
12 | CC(C)C[C@H](NC(=O)[C@H](Cc1ccccc1)NC(=O)c1cnccn1)B(O)O [Bortezomib] | 8.6 | 0.96 | 4.3 | 12 | 1.67 | 6.5 | 4 | 6.6 | 0.96 |  |  | 
13 | COc1cc(Nc2ncc(F)c(Nc3ccc4c(n3)NC(=O)C(C)(C)O4)n2)cc(OC)c1OC [Tamatinib] | 2210 | No effect | 3200 | > 10000 | No effect | 3420 | 3760 | 1210 | 0.81 | very strong synergy | very strong synergy | 
14 | CC[C@]1(O)C[C@H]2CN(CCc3c([nH]c4ccccc34)[C@@](C(=O)OC)(c3cc4c(cc3OC)N(C=O)[C@H]3[C@@](O)(C(=O)OC)[C@H](OC(C)=O)[C@]5(CC)C=CCN6CC[C@]43[C@@H]65)C2)C1 [Vincristine] |  |  |  |  |  |  |  |  |  | Additive | Additive | Summary of Combinations with Compound 44 (SU-DHL-10 cells; listed as vincristine): Combination benefit; growth inhibition by the drug by itself (SU-DHL-10 cells): concentration-dependent growth inhibition; Summary of Combinations with Compound 44 (Toledo cells): No effect; Summary of Combinations with Compound 44 (WSU-DLCL2 cells; listed as vincristine): Combination benefit; growth inhibition by the drug by itself (WSU-DLCL2 cells; single agent): concentration-dependent growth inhibition; Summary of Combinations with Compound 44 (SU-DHL6 cells): Additive; Summary of Combinations with Compound 44 (DOHH2 cells): No effect
15 | CC[C@H](Nc1ncnc2[nH]cnc12)c1nc2cccc(F)c2c(=O)n1-c1ccccc1 [Idelalisib] | 8430 | 1.1^ | 9800 | > 10000 | No effect | 2050 | 2590 | 2980 | 0.59 | very strong synergy | very strong synergy | 
